{"source": "patent US20090155338A1", "about": "“Chronotherapeutic Ocular Delivery System Comprising a Combination of Prostaglandin and a Beta-Blocker for Treating Primary Glaucoma” (ASTON UNIVERSITY, priority 2005, published 2009)", "key": {"[1]": {"details": "cited from earlier work"}, "[2]": {"tested_on": "IOP", "details": "cited from earlier work; for efficiency in decreasing the 24-h IOP: compared with agents that decrease AH production"}, "[3]": {"assay": "In vitro delivery of drug from ocular inserts in a humidified Franz-diffusion cell, artificial lachrymal fluid receiver, HPLC", "format": "physicochemical", "excerpt": "Delivery is monitored in vitro using a Franz-diffusion cell, with the insert in contact with a dialysis membrane to provide support. A membrane with an appropriate molecular weight cut-off is used to allow the passage of pharmaceutical product but not polymer. The receiver solution is an artificial lachrymal fluid, containing NaHCO3 2.2 g/l; NaCl 6.26 g/l; KCl 1.79 g/l; CaCl2.2H2O 0.0735 g/l; MgCl2.6H2O 0.0964 g/l in distilled water (pH to 7.5 with 0.1 M HCl). The temperature used in the diffusion cells is controlled so the internal temperature is 32° C. (the temperature of the corneal surface). The tops of the diffusion cells are sealed using parafilm and the system equilibrated overnight (to give a humid environment). The insert is weighed, then placed on the dialysis membrane and resealed. Samples of delivered pharmaceutical product are removed from the receiver fluid and replaced with fresh liquid to maintain a constant volume. Pharmaceutical product in the receiver fluid is analysed by HPLC. Samples of 1 ml are withdrawn and replaced at given intervals through the side arm. The insert is placed in the donor at time 0. Samples were analysed using HPLC methods described above. It is recommended that betaxolol is analysed within 24 h, or samples frozen. The quantity of drug which has been released at any given time can be calculated using the following equation: […] wherein: Vr is the volume of receiver (ml) Vs the sample volume C[n] is the concentration in the dissolution medium (mg/l) ΣC[m] is the sum total of previous concentrations (mg/l) Mt is the drug released at time t (mg)"}, "[4]": {"details": "hydrochloride salt, cited from earlier work"}, "[5]": {"details": "cited from earlier work", "remark": "listed apart in the source"}}, "note": "Structures can show the parent of a compound that is named as a salt.", "data": [{"smiles": "O=C(O)CCC/C=C\\C[C@@H]1[C@@H](CC[C@@H](O)CCc2ccccc2)[C@H](O)C[C@@H]1O", "note": "[latanoprost acid]", "values": [{"measurement": "half-life in aqueous humor", "setting": "[1]", "result": 2.8, "unit": "h"}]}, {"smiles": "CCNC(=O)CCC/C=C\\C[C@@H]1[C@@H](/C=C/[C@@H](O)CCc2ccccc2)[C@H](O)C[C@@H]1O", "note": "[bimatoprost]", "values": [{"measurement": "efficiency in decreasing the 24-h IOP", "setting": "[2]", "result": "more efficient in decreasing the 24-h IOP"}]}, {"smiles": "CC(C)OC(=O)CCC/C=C\\C[C@@H]1[C@@H](/C=C/[C@@H](O)COc2cccc(C(F)(F)F)c2)[C@H](O)C[C@@H]1O", "note": "[travoprost]", "values": [{"measurement": "efficiency in decreasing the 24-h IOP", "setting": "[2]", "result": "more efficient in decreasing the 24-h IOP"}, {"measurement": "period over which travoprost was released at a substantially constant rate", "setting": "[3]; laminated travoprost/timolol insert, humidity, 32° C., FIG. 5", "result": "about 8 hours"}, {"measurement": "period over which travoprost was released at a substantially-constant rate", "setting": "[3]; single layer PEO insert with 10% carbopol, travoprost alone, humidity, 32° C., FIG. 4", "result": "about 8 hours"}]}, {"smiles": "CC(C)NCC(O)COc1ccc(CCOCC2CC2)cc1", "note": "(stereo not shown) [Betaxolol]", "values": [{"measurement": "time of maximum effect", "setting": "[4]; after topical administration", "result": "about 2 hours"}, {"measurement": "onset of action", "setting": "[4]; topical administration", "result": "≤ 30", "unit": "min"}]}, {"smiles": "CC(C)OC(=O)CCC/C=C\\C[C@@H]1[C@@H](CC[C@@H](O)CCc2ccccc2)[C@H](O)C[C@@H]1O", "note": "[latanoprost]", "values": [{"measurement": "efficiency in decreasing the 24-h IOP", "setting": "[2]", "result": "more efficient in decreasing the 24-h IOP"}, {"measurement": "solubility in acetone and ethanol", "setting": "[5]; acetone and ethanol", "result": "soluble"}, {"measurement": "solubility in water", "setting": "[5]; water", "result": "insoluble"}]}, {"smiles": "CC(C)(C)NC[C@H](O)COc1nsnc1N1CCOCC1", "note": "[timolol, timolol maleate]", "values": [{"measurement": "capacity in decreasing IOP at night", "setting": "[2]; night", "result": "reduced capacity in decreasing IOP at night"}, {"measurement": "timolol released by 6 hours from the beginning of the experiment", "setting": "[3]; laminated travoprost/timolol insert, 6 hours", "result": "over 90%"}, {"measurement": "timolol released for the first 5 hours", "setting": "[3]; laminated travoprost/timolol insert, first 5 hours", "result": "essentially no timolol was released"}]}]}
